Several values for one entry are separate records, joined by “and”; a condition that tells them apart may be missing. Equal entries are not always repeated. Inconclusive results and toxic doses are left out. Rule for the calls: active = survival T/C of 150% or more; inactive = T/C below 125% in these data.
Test system: BDF1 mice, P388 leukemia ip, median survival T/C
Assay: NCI In Vivo Anticancer Drug Screen. Data for tumor model P388 Leukemia (intraperitoneal) in B6D2F1 (BDF1) mice
Settings: endpoint: median survival time, higher = longer survival
Outline: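 Reported as T/C, where T is the survival measurement in dosed animals and C the same measurement in vehicle controls.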

[1] = dose: 50.0 mg/kg/injection, schedule: Q01DX009 (ip), vehicle: saline with Tween-80
[2] = dose: 100.0 mg/kg/injection, schedule: Q01DX009 (ip), vehicle: saline with Tween-80
[3] = dose: 200.0 mg/kg/injection, schedule: Q01DX009 (ip), vehicle: saline with Tween-80
[4] = dose: 2.0 mg/kg/injection, schedule: Q01DX009 (ip), vehicle: saline + alcohol
[5] = dose: 4.0 mg/kg/injection, schedule: Q01DX009 (ip), vehicle: saline + alcohol

Measured: T/C

Clc1c(CI)ccc(CI)c1Cl
inactive: dose: 11.0 mg/kg/injection, schedule: Q04DX003 (ip), vehicle: Klucel (hydroxypropylcellulose) (HPC) 100 % of control | dose: 12.5 mg/kg/injection, schedule: Q01DX009 (ip), vehicle: saline sonified 113 % of control | dose: 16.5 mg/kg/injection, schedule: Q01DX009 (ip), vehicle: saline with Tween-80 90 % of control | dose: 16.5 mg/kg/injection, schedule: Q04DX003 (ip), vehicle: Klucel (hydroxypropylcellulose) (HPC) 100 % of control | dose: 16.5 mg/kg/injection, schedule: Q04DX003 (ip), vehicle: saline sonified 122 % of control | dose: 25.0 mg/kg/injection, schedule: Q01DX009 (ip), vehicle: saline with Tween-80 90 % of control | dose: 25.0 mg/kg/injection, schedule: Q04DX003 (ip), vehicle: Klucel (hydroxypropylcellulose) (HPC) 109 % of control | dose: 37.5 mg/kg/injection, schedule: Q04DX003 (ip), vehicle: Klucel (hydroxypropylcellulose) (HPC) 109 % of control | dose: 50.0 mg/kg/injection, schedule: Q01DX009 (ip), vehicle: saline sonified 118 % of control | dose: 50.0 mg/kg/injection, schedule: Q04DX003 (ip), vehicle: Klucel (hydroxypropylcellulose) (HPC) 110 % of control | dose: 100.0 mg/kg/injection, schedule: Q04DX003 (ip), vehicle: Klucel (hydroxypropylcellulose) (HPC) 120 % of control

CC(c1ccccc1)[n+]1ccccc1C1OCCO1 (configuration not stated)
inactive: dose: 6.25 mg/kg/injection, schedule: Q04DX003 (ip), vehicle: saline 100 % of control | dose: 12.5 mg/kg/injection, schedule: Q04DX003 (ip), vehicle: saline 97 % of control

CCOC(=O)Cc1csc(=NC(=O)c2ccccc2)n1N
inactive: [1] 108 % of control | [2] 115 % of control | [3] 101 % of control

Cc1nnc(NC(=O)CCl)s1
inactive: dose: 25.0 mg/kg/injection, schedule: Q01DX009 (ip), vehicle: saline 95 % of control and 100 % of control and 113 % of control | dose: 35.0 mg/kg/injection, schedule: Q01DX009 (ip), vehicle: saline 113 % of control | dose: 50.0 mg/kg/injection, schedule: Q01DX009 (ip), vehicle: saline 100 % of control | dose: 100.0 mg/kg/injection, schedule: Q01DX009 (ip), vehicle: Klucel (hydroxypropylcellulose) (HPC) 106 % of control | dose: 100.0 mg/kg/injection, schedule: Q01DX009 (ip), vehicle: saline 100 % of control and 105 % of control | dose: 200.0 mg/kg/injection, schedule: Q01DX009 (ip), vehicle: Klucel (hydroxypropylcellulose) (HPC) 111 % of control

O=C(CI)Nc1ccc(O)c2ccccc12
inactive: dose: 0.78 mg/kg/injection, schedule: Q01DX009 (ip), vehicle: water 97 % of control | dose: 1.56 mg/kg/injection, schedule: Q01DX009 (ip), vehicle: water 106 % of control | dose: 3.12 mg/kg/injection, schedule: Q01DX009 (ip), vehicle: water 106 % of control | dose: 6.25 mg/kg/injection, schedule: Q01DX009 (ip), vehicle: water 108 % of control | dose: 6.25 mg/kg/injection, schedule: Q04DX003 (ip), vehicle: water 89 % of control | dose: 12.5 mg/kg/injection, schedule: Q01DX009 (ip), vehicle: water 123 % of control | dose: 12.5 mg/kg/injection, schedule: Q04DX003 (ip), vehicle: water 99 % of control | dose: 25.0 mg/kg/injection, schedule: Q04DX003 (ip), vehicle: water 104 % of control

Cc1cc(OC(=O)Nc2cccc(Cl)c2C)ccc1Cl
inactive: dose: 100.0 mg/kg/injection, schedule: Q04DX003 (ip), vehicle: saline with Tween-80 104 % of control | dose: 200.0 mg/kg/injection, schedule: Q04DX003 (ip), vehicle: saline with Tween-80 104 % of control | dose: 400.0 mg/kg/injection, schedule: Q04DX003 (ip), vehicle: saline with Tween-80 109 % of control

CCCCCCCCCC[N+](C)(C)CCC[N+](C)(C)CCCCCCCCCC
inactive: dose: 0.78 mg/kg/injection, schedule: Q01DX009 (ip), vehicle: saline 87 % of control | dose: 1.56 mg/kg/injection, schedule: Q01DX009 (ip), vehicle: saline 98 % of control | dose: 3.12 mg/kg/injection, schedule: Q01DX009 (ip), vehicle: saline 100 % of control | dose: 3.13 mg/kg/injection, schedule: Q01DX009 (ip), vehicle: saline 120 % of control | dose: 6.25 mg/kg/injection, schedule: Q01DX009 (ip), vehicle: saline 116 % of control and 123 % of control

C=C1CCC2(C)C(O)CC3(C)C(CCC4C5(C)CCC(OC(C)=O)C(C)(C)C5CCC43C)C2C1C (configuration not stated)
inactive: dose: 1.0 mg/kg/injection, schedule: Q01DX009 (ip), vehicle: saline + alcohol 97 % of control | [4] 106 % of control | [5] 92 % of control

Cc1cccc(Nc2sc(C(=O)c3cc4cc(Cl)ccc4o3)c(N)c2C#N)c1
inactive: [1] 108 % of control | [2] 102 % of control | [3] 111 % of control

C=C1C(=O)O[C@@H]2CC(CO)=C([C@@H](C)CCCO)[C@@H](OC(=O)/C(C)=C\C)[C@H]12
inactive: [4] 123 % of control | [5] 104 % of control | dose: 8.0 mg/kg/injection, schedule: Q01DX009 (ip), vehicle: saline + alcohol 123 % of control | dose: 16.0 mg/kg/injection, schedule: Q01DX009 (ip), vehicle: saline + alcohol 114 % of control

O=C1C=C(Cl)C(=O)C2=C1CCCC2
inactive: dose: 0.39 mg/kg/injection, schedule: Q04DX002 (ip), vehicle: saline 92 % of control | dose: 0.78 mg/kg/injection, schedule: Q04DX002 (ip), vehicle: saline 97 % of control | dose: 1.56 mg/kg/injection, schedule: Q04DX002 (ip), vehicle: saline with Tween-80 96 % of control | dose: 1.56 mg/kg/injection, schedule: Q04DX002 (ip), vehicle: saline 101 % of control

Reference: PubChem BioAssay AID328 (DTP/NCI, 2004)
